Test results as given in US12187705B2, “Heteroaryl-triazole and heteroaryl-tetrazole compounds as pesticides” (Bayer Aktiengesellschaft, priority 2018, dated 2025).

Legend:
Assay type in all cases: in vivo
[1] = tested on: Diabrotica balteata; assay: Diabrotica balteata spray test; conditions: 160 μg/well, wheat seeds, after 7 days; for pest or weed control at 160 µg/disc, 160 µg/well: Diabrotica balteata, 168 h, read-out: efficacy (seedlings grown)
Procedure: Diabrotica balteata—Spray Test
(§1) To produce a suitable preparation of active compound, 1 part by weight of active compound is mixed with the stated amount of solvent, and the concentrate is diluted with water, containing an emulsifier concentration of 1000 ppm, to the desired concentration. Further test concentrations are prepared by dilution with emulsifier containing water.
Soaked wheat seeds (Triticum aestivum) are placed in a multiple well plate filled with agar and some water and are incubated for 1 day to germinate (5 seeds per well). The germinated wheat seeds are sprayed with a test solution containing the desired concentration of the active ingredient. Afterwards each unit is infected with 10-20 larvae of the banded cucumber beetle (Diabrotica balteata).
After 7 days efficacy in % is determined. 100% means all the seedlings have grown up like in the untreated, uninfected control; 0% means none of the seedlings have grown.

[2] = tested on: Ctenocephalides felis; assay: Ctenocephalides felis oral test; conditions: Ctenocephalides felis, in Bos taurus, po, 48 h
Procedure: Ctenocephalides felis—Oral Test
(§2) Solvent: dimethyl sulfoxide
To produce a suitable preparation of active compound, 10 mg of active compound are dissolved in 0.5 ml solvent, and the concentrate is diluted with cattle blood to the desired concentration.
Approximately 20 adult unfed cat fleas (Ctenocephalides felis) are placed in flea chambers. The blood chamber, sealed with parafilm on the bottom, are filled with cattle blood supplied with compound solution and placed on the gauze covered top of the flea chamber, so that the fleas are able to suck the blood. The blood chamber is heated to 37° C. whereas the flea chamber is kept at room temperature.
After 2 days mortality in % is determined. 100% means all the fleas have been killed; 0% means none of the fleas have been killed.

[3] = tested on: Nezara viridula; assay: Nezara viridula spray test; conditions: in Hordeum vulgare, 96 h
Procedure: Nezara viridula—Spray Test
as §1
Barley plants (Hordeum vulgare) infested with larvae of the southern green stink bug (Nezara viridula) are sprayed with a test solution containing the desired concentration of the active ingredient.
After 4 days mortality in % is determined. 100% means all the stink bugs have been killed; 0% means none of the stink bugs have been killed.

[4] = tested on: Ctenocephalides felis; assay: Ctenocephalides felis in-vitro contact test adult cat flea; conditions: 5 μg/cm^2 (=500 g/ha), after 48 hours
Procedure: Ctenocephalides felis—In-Vitro Contact Test Adult Cat Flea
9 mg compound is solved in 1 ml acetone and diluted with acetone to the desired concentration. 250 μl of the test solution is filled in 25 ml glass test tubes and homogeneously distributed on the inner walls by rotation and tilting on a shaking device (2 h at 30 rpm). With a compound concentration of 900 ppm, an inner surface of 44.7 cm^2 and a homogeneous distribution, a dose of 5 μg/cm^2 is achieved.
After the solvent has evaporated, each test tube is filled with 5-10 adult cat fleas (Ctenocephalides felis), closed with a perforated lid and incubated in a lying position at room temperature and relative humidity. After 48 hours efficacy is determined. The fleas are patted on the ground of the tubes and are incubated on a heating plate at 45-50° C. for at most 5 minutes. Immotile or uncoordinated moving fleas, which are not able to escape the heat by climbing upwards, are marked as dead or moribund.
An efficacy of 100% means all fleas are dead or moribund; 0% means no fleas are dead or moribund.

[5] = tested on: Myzus persicae; assay: Myzus persicae oral test; conditions: 120 h
Procedure: To produce a suitable preparation of active compound, 1 part by weight of active compound is mixed with the stated amount of solvent, and the concentrate is diluted with water to the desired concentration.
50 μl compound solution is filled in microtiter plates and 150 μl IPL41 insect medium (33%+15% sugar) is added to obtain a total volume of 200 μl per well. Afterwards the plates are sealed with parafilm through which a mixed population of the green peach aphid (Myzus persicae) can suck on the compound preparation.
After 5 days mortality in % is determined. 100% means all aphids have been killed and 0% means none of the aphids have been killed.

[6] = tested on: Aedes aegypti strain MONHEIM; assay: Aedes aegypti test (AEDSAE surface treatment & contact assay); conditions: surface concentration 20 mg/m^2, 30 minutes exposure, 24 hours after contact, read-out: efficacy (mortality)
Procedure: Aedes aegypti Test (AEDSAE Surface Treatment & Contact Assay)
(§3) Solvent: Aceton+2000 ppm rapeseed oil methyl ester (RME)
(§4) In order to produce a sufficient, active ingredient containing solution it is necessary to solve the test-compound in the solvent-mix (Acetone at 2 mg/ml/RME 2000 ppm). This solution is pipetted onto a glazed tile and after evaporation of the Acetone, adult mosquitoes of the species Aedes aegypti strain MONHEIM are placed onto the dried surface. The exposure time is 30 minutes.
(§5) Mortality in percent (%) is determined 24 hours after contact to the treated surface. 100% mortality means that all test-insects are dead, whereas 0% means that not a single insect died.

[7] = tested on: Boophilus microplus; assay: Boophilus microplus injection test; conditions: 20 μg/animal, egg deposition after 7 days; for pest or weed control at 0.02 mg: Rhipicephalus microplus, 168 h, read-out: efficacy (infertile eggs)
Procedure: Boophilus microplus—Injection Test
as §2
To produce a suitable preparation of active compound, 10 mg of active compound are dissolved in 0.5 ml solvent, and the concentrate is diluted with solvent to the desired concentration.
Five adult engorged female ticks (Boophilus microplus) are injected with 1 μl compound solution into the abdomen. The ticks are transferred into replica plates and incubated in a climate chamber.
After 7 days egg deposition of fertile eggs is monitored. Eggs where fertility is not visible are stored in a climate chamber till hatching after about 42 days. An efficacy of 100% means all eggs are infertile; 0% means all eggs are fertile.

[8] = tested on: Spodoptera frugiperda; assay: Spodoptera frugiperda spray test; conditions: in Zea mays, 168 h
Procedure: Spodoptera frugiperda—Spray Test
as §1, with “solvents” for “solvent,”, “and” for “and the concentrate”
Maize (Zea mays) leaf sections are sprayed with a preparation of the active ingredient of the desired concentration. Once dry, the leaf sections are infested with fall armyworm larvae (Spodoptera frugiperda).
After 7 days mortality in % is determined. 100% means all caterpillars have been killed and 0% means none of the caterpillars have been killed.

[9] = tested on: Culex quinquefasciatus strain P00; assay: Culex quinquefasciatus test (CULXFA surface treatment & contact assay); conditions: surface concentration 20 mg/m^2, 30 minutes exposure, 24 hours after contact, read-out: efficacy (mortality)
Procedure: Culex quinquefasciatus Test (CULXFA Surface Treatment & Contact Assay)
as §3
as §4, with “Culex quinquefasciatus” for “Aedes aegypti”, “P00” for “MONHEIM”
as §5

Structure (SMILES): CC(c1ncnn1-c1ncccn1)N(CC1CC1)C(=O)c1cc(Cl)cc(C(=O)NC2CC2)c1 (stereo not drawn) [Example I-007]
- pest or weed control at 160 µg/disc, 160 µg/well [1]: 100%
- mortality at 100 ppm [2]: 100%
- mortality at 500 g/ha [3]: 100%
- pest or weed control at 5 µg/cm2, 5 µg/cm2 ([4]; Ctenocephalides felis, read-out: efficacy (fleas dead or moribund)): 100%
- mortality at 4 ppm [5]: 100%
- mortality at 20 ppm [5]: 100%

Structure (SMILES): CC(c1ncnn1-c1ncccn1)N(CC1CC1)C(=O)Cc1cc(Cl)cc(C(F)(F)F)c1 (stereo not drawn) [Example I-011]
- pest or weed control at 160 µg/disc, 160 µg/well [1]: 100%

Structure (SMILES): CC(c1ncnn1-c1ncccn1)N(CC1CC1)C(=O)c1cc(Cl)ccc1Cl (stereo not drawn) [Example I-014]
- pest or weed control at 160 µg/disc, 160 µg/well [1]: 100%

Structure (SMILES): CC(NC(=O)c1cc(Cl)cc(-n2cccn2)c1)c1ncnn1-c1ncccn1 (stereo not drawn) [Example I-048]
- pest or weed control at 160 µg/disc, 160 µg/well [1]: 100%
- mortality at 100 ppm [2]: 100%
- mortality at 20 mg/m2 [6]: 90 to 100%
- pest or weed control at 0.02 mg [7]: 100%
- mortality at 4 ppm [5]: 100%

Structure (SMILES): C[C@H](NC(=O)c1cc(C(F)(F)F)nn1-c1ccc(F)cc1)c1ncnn1-c1ncccn1 [Example I-052, 1-(4-fluorophenyl)-N-{(1S)-1-[1-(pyrimidin-2-yl)-1H-1,2,4-triazol-5-yl]ethyl}-3-(trifluoromethyl)-1H-pyrazole-5-carboxamide]
- mortality at 100 ppm [2]: 100%
- pest or weed control at 0.02 mg [7]: 100%

Structure (SMILES): CC(NC(=O)c1cc(Cl)cc(C2CC2)c1)c1ncnn1-c1ccc(C#N)cn1 (stereo not drawn) [Example I-054]
- efficacy (seedlings grown) [1]: 100%
- efficacy (fleas dead or moribund) [4]: 80%

Structure (SMILES): COC[C@H](NC(=O)c1cc(Cl)cc(S(C)(=O)=O)c1)c1ncnn1-c1ccc(C#N)cn1 [Example I-058, 3-chloro-N-{(1R)-1-[1-(5-cyanopyridin-2-yl)-1H-1,2,4-triazol-5-yl]-2-methoxyethyl}-5-(methylsulfonyl)benzamide]
- mortality at 100 ppm [2]: 100%

Structure (SMILES): C[C@@H](NC(=O)c1cc(Cl)cc(SC(C)(C)C)c1)c1ncnn1-c1ncccn1 [Example I-060]
- pest or weed control at 160 µg/disc, 160 µg/well [1]: 100%
- mortality at 100 ppm [2]: 100%
- mortality at 500 g/ha [3]: 100%

Structure (SMILES): C[C@H](NC(=O)c1cc(Cl)cc(S(C)(=O)=O)c1)c1ncnn1-c1ccc(SC(F)(F)F)cn1 [Example I-064]
- pest or weed control at 160 µg/disc, 160 µg/well [1]: 100%
- mortality at 500 g/ha [8]: 100%

Structure (SMILES): CC(NC(=O)c1cc(Cl)cc(S(=O)(=O)C(F)(F)F)c1)c1ncnn1-c1ncc(Cl)cn1 (stereo not drawn) [Example I-069]
- efficacy (seedlings grown) [1]: 100%
- efficacy (infertile eggs) [7]: 100%
- efficacy (fleas dead or moribund) [4]: 100%

Structure (SMILES): CC(NC(=O)c1cc(Cl)cc(S(=O)(=O)C(F)(F)F)c1)c1ncnn1-c1ccc(C(F)(F)F)cn1 (stereo not drawn) [Example I-072]
- efficacy (seedlings grown) [1]: 100%
- efficacy (infertile eggs) [7]: 100%

Structure (SMILES): CC(NC(=O)c1cc(Cl)cc(S(=O)(=O)C(F)(F)F)c1)c1ncnn1-c1ccc(Cl)cn1 (stereo not drawn) [Example I-073]
- efficacy (seedlings grown) [1]: 100%
- efficacy (infertile eggs) [7]: 100%
- efficacy (fleas dead or moribund) [4]: 90%

Structure (SMILES): CC(NC(=O)c1cc(Cl)cc(S(=O)(=O)C(F)(F)F)c1)c1ncnn1-c1cc(C#N)ccn1 (stereo not drawn) [Example I-075]
- efficacy (seedlings grown) [1]: 100%
- efficacy (infertile eggs) [7]: 100%
- efficacy (fleas dead or moribund) [4]: 90%

Structure (SMILES): C[C@@H](NC(=O)c1cc(Cl)cc(S(=O)(=O)C(F)(F)F)c1)c1ncnn1-c1ccnc(Cl)c1 [Example I-076]
- mortality at 100 ppm [2]: 100%
- pest or weed control at 0.02 mg [7]: 100%

Structure (SMILES): CC(NC(=O)c1cc(Cl)cc(S(=O)(=O)C(F)(F)F)c1)c1ncnn1-c1ncc(Cl)cc1F (stereo not drawn) [Example I-079]
- efficacy (seedlings grown) [1]: 100%

Structure (SMILES): CC(NC(=O)c1cc(Cl)cc(S(=O)(=O)C(C)(C)C)c1)c1ncnn1-c1ncccn1 (stereo not drawn) [Example I-080]
- efficacy (infertile eggs) [7]: 80%

Structure (SMILES): C[C@H](NC(=O)c1cc(Cl)cc(NS(=O)(=O)c2ccccc2)c1)c1ncnn1-c1ncccn1 [Example I-086, 3-chloro-5-[(phenylsulfonyl)amino]-N-{(1S)-1-[1-(pyrimidin-2-yl)-1H-1,2,4-triazol-5-yl]ethyl}benzamide]
- mortality at 4 ppm [5]: 90%

Structure (SMILES): C[C@@H](NC(=O)c1cc(Cl)cc(NC(=O)C2CC2)c1)c1ncnn1-c1ncccn1 [Example I-088]
- mortality at 100 ppm [2]: 100%

Structure (SMILES): CC(NC(=O)c1cc(Cl)cc(S(C)(=O)=O)c1)c1nc(C(F)(F)F)nn1-c1ccc(Cl)cn1 (stereo not drawn) [Example I-090]
- efficacy (seedlings grown) [1]: 100%

Structure (SMILES): CC(NC(=O)c1cc(Cl)cc(S(=O)(=O)C(F)(F)F)c1)c1ncnn1-c1ncc(C(F)(F)F)cn1 (stereo not drawn) [Example I-097]
- efficacy (seedlings grown) [1]: 100%

Structure (SMILES): CC(NC(=O)c1csc(Cl)c1)c1ncnn1-c1ncc(C(F)(F)F)cn1 (stereo not drawn) [Example I-098]
- efficacy (seedlings grown) [1]: 100%
- efficacy (fleas dead or moribund) [4]: 90%

Structure (SMILES): CC(NC(=O)c1cc(C(F)(F)F)cc(Cl)c1F)c1ncnn1-c1ncccn1 (stereo not drawn) [Example I-104]
- efficacy (seedlings grown) [1]: 100%

Structure (SMILES): C[C@@H](NC(=O)c1cc(C2CC2)on1)c1ncnn1-c1ncccn1 [Example I-107]
- pest or weed control at 160 µg/disc, 160 µg/well [1]: 100%
- mortality at 500 g/ha [3]: 100%
- mortality at 20 mg/m2 [9]: 80 to 100%

Structure (SMILES): Cc1cnc(-n2ncnc2[C@@H](C)NC(=O)c2csc(Cl)c2)nc1 [Example I-109]
- mortality at 500 g/ha [3]: 90%

Structure (SMILES): CC(NC(=O)c1cccc(-c2ccc(OC(F)(F)F)cc2)c1)c1ncnn1-c1ncccn1 (stereo not drawn) [Example I-115]
- pest or weed control at 160 µg/disc, 160 µg/well [1]: 100%

Structure (SMILES): C[C@H](NC(=O)c1cc(Cl)cc(S(C)(=O)=O)c1)c1ncnn1-c1cnc(C#N)cn1 [Example I-117]
- efficacy (seedlings grown) [1]: 100%

Structure (SMILES): C[C@H](NC(=O)c1cc(Cl)cc(S(=O)(=O)C(F)(F)F)c1)c1ncnn1-c1ccc(F)cn1 [Example I-118]
- efficacy (seedlings grown) [1]: 100%

Structure (SMILES): C[C@@H](c1ncnn1-c1ccc(C#N)cn1)N(CC1CC1)C(=O)c1cc(F)cc(C2CC2)c1 [Example I-121]
- efficacy (seedlings grown) [1]: 100%

Structure (SMILES): C[C@H](NC(=O)c1cc(Br)cc(C(C)(C)C)c1)c1ncnn1-c1ncccn1 [Example I-125]
- efficacy (seedlings grown) [1]: 100%
